# How the values were obtained:
# [1] = tested on: human T-lymphoblastoid cell line MT-4; experiment: proliferation of IFN-sensitive T-lymphoblastoid cell line; format: cell-based; conditions: MT-4 cell line
# [2] = biological target: common receptors on mouse thymocytes; conditions: cited from earlier work
# human peripheral cells = experiment: mitogen (PHA)-driven proliferation, [3H]-thymidine incorporation; format: cell-based
# Description: Ninety five ml of blood were taken from each of 10 volunteer donors, and 5 ml of 3-5% EDTA were added to the blood immediately and mixed carefully to prevent coagulation. The blood was than mixed with the equal volume of medium 199 or with buffered physiological salt solution. Ficoll-Paque (Pharmacia) was poured into plastic centrifuge test-tubes with caps (Costar) (3 ml of Ficoll-Paque per each test-tube, volume of a test-tube - 15 ml, diameter - 13 mm at room temperature, and then 6-7 ml of diluted blood were carefully layered on top). The test-tubes were centrifuged at 20 °C for 40 minutes, at 400 g, with the brake of centrifuge being switched off. The mononuclear cells formed a layer on the border of the liquid division and the cells were collected with a Pasteur pipette into a centrifuge test-tube with 5 ml of RPMI 1640, containing 2% of inactivated fetal serum and penicillin (100 units/ml) with streptomycin (100 units/ml). Then the cells were washed with physiological buffer solution (PBS) three times with centrifuging at 400 g for 5 minutes at the temperature of +8 °C. When the concentration of the cells was 2.5^·10^6 cells/ml, they were placed in RPMI 1640 medium, containing 5% of fetal serum (heated for 30 minutes at 56 °C), 100 units/ml of penicillin, 100 units/ml of streptomycin, 1 ml 200 mM of L-glutamine per 100 ml of serum. All the reagents were produced by Gibco. The cells were dropped into a 96-well plate (100 µl per each plate) with mitogen - phytohemagglutinin (PHA) (final concentration - […]), the preparations under study and immunosuppressants (cyclosporin A, FK506 or rapamycin) in concentration - […]) were pipetted into the tubes beforehand. The plate was placed in a CO2-incubator at 5% CO2 with humid atmosphere for 72 hours. 12-18 hours before the completion of the incubation […] of [^3H]-thymidine was added into each well. […] The number of disintegrations per minute was counted using a Minibeta counter (LKB). The stimulation index was determined by arithmetical mean of at least three parallel measurements ±SD to the corresponding control.
substance,measurement,setting,value
"α-peptoferon: octapeptide corresponding to the high-affinity binding/anti-lymphoproliferative site of hIFN-α2 (TMα1-like sequence 130-137) (LKEKKYSP; UniProt P01563 153-160, looked up, fragment)",effect on the proliferation of MT-4,[1],inhibited by rhIFN-α2 and a-peptoferon in a dose-dependent fashion
same,effect on the proliferation of MT-4 compared with rhIFN-α2,[1],comparable effects
same,Ki,"[2]; mouse thymocytes, read-out: Ki of recombinant (r)hIFN-α2 binding by α-peptoferon",~1 pM
same,affinity to the specific receptors in comparison with recombinant hIFN-α2,[2]; previous studies,the same or higher affinity
same,effect on mitogen (PHA)-driven proliferation (lymphoproliferative response),"human peripheral cells; PHA, 72 hours, no immunosuppressant",inhibited by rhIFN-α2 and a-peptoferon in a dose-dependent fashion
same,effect on PHA-driven proliferation compared with rhIFN-α2,"human peripheral cells; PHA, no immunosuppressant",comparable effects
same,effect on PHA-driven proliferation in the presence of cyclosporin A,"human peripheral cells; in the presence of 20 mM CsA in cultural medium, rhIFN-α2 at 10^-16 M",comparable effect
